According to patent publication US7666996B2, “Casein derived peptides and uses thereof” (priority 2000, dated 2010):

Tests used:
[1] = test system: HIV-1 (CEM lymphocyte cells); test: Inhibition of HIV-1 infection of CEM lymphocytes; assay type: cell-based; settings: for Lymphocyte cell numbers: day 7; for HIV-1 infection level, HIV-P24 antigen: control 0.52
Experimental: Peptides: Peptides [either peptides derived from natural casein or synthetic peptides derived from casein (2-26 amino acids in length, see table 3)] supplied as lyophilized powder were resuspended in RPMI complete medium and added to cell cultures at a final concentrations of 50 to 1000 μg per ml.
Cells: Several types of freshly isolated human cells (primary cells) and cell lines are known to be susceptible to in vitro HIV-1 infection, although essentially any cell displaying even low surface levels of the CD4 molecule can be considered a potential target for HIV-1 infection. Two commonly used human cell lines which are highly sensitive for HIV-1 infection were chosen, CEM and Sup-T1.
CEM is a human T4-lymphoblastoid cell line initially derived by G. E. Foley et al. [(1965), Cancer 18:522] from peripheral blood buffy coat of a person with acute lymphoblastic leukemia. These cells were continuously maintained in suspension in medium, and have been used widely for analysis of infectivity, antiviral agents and neutralizing antibodies.
Virus: The HIV virus strain employed was HIV-1IIIB, originally designated HTLV-IIIB. Concentrated culture fluids of peripheral blood from several patients with AIDS or related diseases were used to establish a permanent productive infection in H-9 cells. This subtype B virus has high capacity to replicate in human T-cell lines. Viral titer was 5.38 ng per ml in stock solution.
HIV-1 P^24 antigen capture assay: An HIV-1 P^24 Antigen capture assay kit employed was designed to quantitate the HIV-1 P^24 core antigen, which is proportionally related to the degree of viral production in cells. This kit was purchased from the AIDS Vaccine program of the SAIC-NCI-Frederick Cancer Research Institute, P.O. Box B, Frederick, Md. 21702, USA and included 96 well plates coated with monoclonal antibody to HIV-1 P^24, primary antibody-rabbit anti-HIV P^24 serum, secondary antibody-Goat anti-rabbit-IgG (H+L) peroxidase conjugated antibody, TMB peroxidase substrate system and lysed HIV-1 P^24 standard. The HIV-1 P^24 antigen capture assay was analyzed by Organon-Technica ELISA reader at 450 nm with a reference at 650 nm.
HIV-1 P^24 antigen capture ELISA: HIV infection was measured with an indirect enzyme immunoassay which detects HIV-1 P^24 core antigens in tissue culture media. Tissue culture supernatant was reacted with primary rabbit anti-HIV-1 P^24 antigen and visualized by peroxidase conjugated goat anti rabbit IgG. The reaction was terminated by adding 4N H2SO4, wherein the intensity of the color developed is proportional to the amount of HIV-1 antigen present in the tissue culture supernatant.
HIV infection of human cultured CD4 cells: For longer incubations, the cells (CEM, Sup-T1) were preincubated with several increasing concentrations of peptides derived from natural casein (50-1000 μg per ml) or synthetic peptides derived from casein (10-500 μg per ml) for 24 (for synthetic and natural peptides) and 48 (only for natural peptides) hours and HIV-1IIIB (45 pg per ml final concentration) was added to each well thereafter. For the shorter incubations (3 hours), HIV-1IIIB was preincubated with the peptides for 3 hours and then added to cells (5000 cells/well) in tissue culture plates. Controls were IF (Infected, cells cultured with HIV-1 and without peptides), UIF (Uninfected, cells cultured without HIV-1 and without peptides) and UIF +Ch (Uninfected+peptides derived from natural casein, cells cultured in the presence of peptides derived from natural casein {50-1000 μg per ml}) to test the effect of peptides derived from natural casein and synthetic peptides derived from casein on cell viability and growth. Cells were counted for viability and proliferation rate on day 7, 10 and day 14 post infection (the day of P^24 antigen culture supernatant harvest). Cells and tissue culture supernatants (media) were harvested and lysed immediately in 1/10 volume of 10% Triton X-100. […]

[2] = test system: Non-Obese Diabetic (NOD) mice; test: Glucosuria in Non-Obese Diabetic (NOD) mice; assay type: in vivo; settings: additional series, assayed at week 16; data not shown
Experimental: Juvenile (Type I, IDDM) diabetes in Non-Obese Diabetic (NOD) mice:
Peptides derived from natural casein: NOD mice are a commonly used model for research of autoimmune disease and human Juvenile Diabetes. Six week old female NOD mice received either one or two injections per week of 100 μg of peptides derived from natural casein, for a total of 5 or 10 treatments. Control mice received no treatment. The severity of disease was determined according to glucosuria, which was measured using Combi test sticks [Gross, D. J. et al (1994), Diabetology, 37:1195]. Results were expressed as the percent of glucosuria-free mice in each sample over a 365-day period.
Synthetic peptides derived from casein: In another experiment, 6 week old female NOD mice received one injection per week of 100 μg of Synthetic peptides derived from casein for a total of 5 treatments. Control mice received no treatment. Results were expressed as the number of healthy mice in the various treated groups.

[3] = test system: human Peripheral Blood Stem Cells (K562 target cells); test: Natural Killer (NK) cell activity in cultured human PBSC; assay type: cell-based
Experimental: From human Peripheral Blood Stem Cells (PBSC): PBSC of G-CSF treated subjects were separated on a FICOLL gradient, washed twice with RPMI-1640 medium containing 10% FCS and glutamine and seeded into 1.5 ml wells with or without peptides derived from natural casein or synthetic peptides derived from casein, as indicated, (0-500 μg per ml). Following two days incubation the cells were assayed for Natural Killer activity by measuring radioactivity released from ^35S-labeled K562 target cells (NEG-709A, 185.00 MBq, […] EASYTAGth Methionine, L-[^35S] 43.48 TBq per mmol, 1175.0 Ci per mmol, 0.488 ml, Boston USA). Two concentrations of effector cells (2.5×10^5 and 5×10^5 cells per well) were incubated with 5×10^3 target cells per well (effector:target cell ratios of 50:1 and 100:1, respectively) in U-bottomed 96 well tissue culture plates. The cells were incubated for 5 hours at 37° C. in 5% CO2, 95% air and precipitated by 5 minutes centrifugation at 1000 rpm. ^35S release was measured in 50 μl samples of the supernatant liquid.

[4] = test system: murine bone marrow progenitor cells; test: CFU-GEMM colonies from murine bone marrow cells, differential counts; assay type: cell-based; settings: 53% in controls
Experimental: Proliferation of megakaryocytes in multipotential colonies (CFU-GEMM) from murine bone marrow cells: Primary bone marrow cells (1×10^5 per ml) from 8-12 week-old C3H/HeJ […], 95% air, at 37° C. The medium, appropriate for the growth of multipotential colonies (CFU-GEMM), contained 1% BSA (Sigma), 10^−4 M thioglycerol (Sigma), 2.8×10^−4 M human transferrin (TF, Biological industries, Israel), 10% WEHI-CM as a source of IL-3 and 2 units per ml erythropoietin (rhEPO, R & D Systems, Minneapolis). […] They were picked with a micropipette, cytocentrifuged and stained with May-Grunwald-Giemsa for differential counts. At least 700 cells were counted for each preparation.
Proliferation of Dendritic cells in CFU-GEMM: Multipotent (CFU-GEMM) colonies grown from primary bone marrow cells as described for the assay of megakaryocyte proliferation above were collected, stained and counted for dendritic cells. At least 700 cells were counted for each preparation.
Proliferation of Plasma cells in CFU-GEMM: Multipotent (CFU-GEMM) colonies grown from primary bone marrow cells as described for the assay of megakaryocyte proliferation above were collected, stained and counted for plasma cells. At least 700 cells were counted for each preparation.
Proliferation of Macrophage Cells in CFU-GEMM: Multipotent (CFU-GEMM) colonies grown from primary bone marrow cells as described for the assay of megakaryocyte proliferation above were collected, stained and counted for macrophage cells. At least 700 cells were counted for each preparation.
Proliferation of Red Blood Cells in CFU-GEMM: Multipotent (CFU-GEMM) colonies grown from primary bone marrow cells as described for the assay of megakaryocyte proliferation above were collected, stained and counted for red blood cells. At least 700 cells were counted for each preparation.
Proliferation of Polymorphonuclear Cells (PMN) in CFU-GEMM: Multipotent (CFU-GEMM) colonies grown from primary bone marrow cells as described for the assay of megakaryocyte proliferation above were collected, stained and counted for polymorphonuclear cells. […]

[5] = test system: female C57B⅙j mice fed an atherogenic diet; test: Diet-induced hypercholesterol/hyperlipidemia in mice; assay type: in vivo; settings: one week post 1 mg i.p.
Experimental: The ability of synthetic casein derived peptides to reduce cholesterol levels in 7-week old female C57B⅙j mice was assessed after feeding an atherogenic diet. The mice were divided into groups of 8. One control group was fed a normal diet. A second control group was fed the modified Thomas Hartroft diet containing cholate (#TD 88051: Teklad, Madison, Wis.) [Gerber, D. W. et al., Journal of Lipid Research. 42, 2001]. The remaining experimental groups were all fed the modified Thomas Hartroft diet.
Cholestrol blood levels were determined according to Roche Cholesterol Assay based on Roeschlou & Allin enzymatic method (Roche, Inc., Germany).

[6] = test system: murine bone marrow progenitor cells; test: CFU-GM colony formation with IL-3 and G-CSF, murine bone marrow; assay type: cell-based
Experimental: Cells were scored in the macroscopic colonies grown from murine bone marrow cells prepared similarly to the CFU-GEMM colonies previously described. Cells were incubated with hematopoietic factors cytokine (IL-3) and colony stimulating factor (G-CSF), and 25 μg or more of synthetic peptides derived from casein (J), representing amino acids 1-22 of α-S1 casein, or 30-4, representing amino acids 1-6 of α-S1 casein, for 14 days, individually or in combination. The stimulation of colony formation (CFU) is expressed as the number of myeloid colonies in 10^5 plated MNCs.
Synthetic peptides derived from αS1-casein stimulate Granulopoietic (GM) cell proliferation in CFU-GM: As mentioned hereinabove, formation and expansion of CFU-GM (Granulocyte and Macrophage) colonies, and CFU-GEMM (Granulocyte, Erythroid, Macrophage and Megakaryocyte) colonies constitute one of the early events in the differentiation of hematopoietic progenitor cells in the bone marrow.

[7] = test system: irradiated, bone marrow transplanted mice; test: Leukocyte and platelet reconstitution in bone marrow transplant recipient mice; assay type: in vivo; settings: 800 cGy; 1.0 mg i.p. daily, days 4-7
Experimental: Leukocyte and platelet reconstitution in bone marrow transplant recipient Mice: BALB/c mice were sub-lethally irradiated at a source to skin distance of 70 cm, dosage of 50 cGy per minute, for a total of 600 cGy. The irradiated mice were […] casein, synthetic peptides derived from casein (13-26 amino acids, see Table 3 above), or human serum albumin (controls), following a double-blinded protocol. Leukocyte reconstitution was determined according to cell count in peripheral blood collected at indicated intervals from 6 to 12 days post treatment. Platelet reconstitution was determined by cell count in blood collected from the retro orbital plexus, into EDTA-containing vials, at indicated intervals from day 6 to day 15 post treatment. […]
In a third series of experiments, the mice were irradiated (800 cGy), reconstituted and injected intraperitoneally with 1.0 mg synthetic peptides derived from casein (peptides 3a and 4P, representing the first 6 and 12 amino acids of the N terminus of αS1 casein, respectively—see Table 3 above) daily, on days 4, 5, 6 and 7 post-transplantation. Platelet reconstitution was assayed at 10 and 12 days post-transplantation.
In a fourth series of experiments, F1 mice were irradiated (750 cGy), reconstituted with syngeneic bone marrow, and injected intravenously 24 hours later with 1 mg per mouse of synthetic peptides derived from casein representing amino acids 1-22 of the N terminus of αS1 casein. In addition, 2 (two) groups of mice were treated each with a natural fraction of αS1 casein position 1-23, and a fraction of peptides derived from natural κ-casein, representing amino acid coordinates 106-169 of κ-casein (SEQ ID NO: 27). WBC counts were conducted on days 5, 7, 10 and 12 post-transplantation.

[8] = 25 μg per ml, virus pre-treated 3 hours, infected control 1.06×10^6

RPK [1P, synthetic peptide, N-terminal 3 amino acids of αS1 casein]
Lymphocyte cell numbers ([1]; 100 μg per ml, infected control 1.06×10^6): 1.29×10^6
HIV-1 infection level, HIV-P24 antigen ([1]; 100 μg/ml, 7 days post infection): 0.17 ng P^24 Antigen/ml
Lymphocyte cell numbers ([1]; 500 μg per ml, infected control 1.06×10^6): 2.01×10^6
HIV-1 infection level, HIV-P24 antigen ([1]; 500 μg/ml, 7 days post infection): 0.14 ng P^24 Antigen/ml
prevention of onset of glucosuria (in words) [2]: effectively prevented the onset of glucosuria
target cell lysis relative to untreated controls ([3]; PBS cells from 5 donors with hematopoietic disease, 25-250 μg/ml): from 2- to greater then 8-fold
effect on NK activity in PBSC from healthy human donors ([3]; healthy donors): No significant effect

RPKH [2P, synthetic peptide, N-terminal 4 amino acids of αS1 casein]
prevention of onset of glucosuria (in words) [2]: effectively prevented the onset of glucosuria
red blood cells, % of total cell count [4]: 71%

RPKHP [3P, synthetic peptide, N-terminal 5 amino acids of αS1 casein]
HIV-1 infection level, HIV-P24 antigen ([1]; 10 μg per ml, 7 days post infection): 0.26 ng P^24 Ag per ml
Cell counts ([1]; 10 μg per ml, virus pre-treated 3 hours, infected control 1.06×10^6): 1.17×10^6
HIV-1 infection level, HIV-P24 antigen ([1]; 25 μg per ml, 7 days post infection): 0.18 ng P^24 Ag per ml
Cell counts [1, 8]: 1.26×10^6
HDL ([5]; diet control 54.5): 42.5 mg/dL
LDL ([5]; diet control 326): 247 mg/dL
Total cholesterol (TC) ([5]; diet control 393): 308 mg/dL

RPKHPI [4P, synthetic peptide, N-terminal 6 amino acids of αS1 casein]
Cell counts [1, 8]: 1.26×10^6
Cell numbers ([1]; 250 μg per ml, virus pre-treated 3 hours, infected control 1.06×10^6): 1.59×10^6
HIV-P24 antigen, viral particles vs infected control (in words) ([1]; virus preincubated 3 hours, 7 days post infection): dose dependent reduction
myelocyte formation with G-CSF and IL-3 (in words) ([6]; 25 μg or more, 14 days): synergistic increase
increase in proliferation of granulocytes ([6]; in the presence of G-CSF): 18%
increase in platelet counts over control, 12 days post transplantation [7]: 29%
platelet counts, 12 days post transplantation [7]: 872000 mL⁻¹
